EP4640206A1, “NISIN FOR INHIBITING BIOFILMS” (SkyLab AG, priority 2024, dated 2025)

Tested on: S.mutans biofilms
Test: Follow-up observation of pH of washes of a laboratory model of S. mutans biofilms in 10% sucrose
Format: cell-based, Streptococcus mutans
Experimental: Example No. 2. Follow-up observation of pH of washes of a laboratory model of S. mutans biofilms.
Inoculum of S.mutans control strain was prepared from an ampoule. The ampoule with the dried strain was opened sterilely over a drier or a tray. The upper end of the ampoule was heated on a burner flame, and paraffin was removed; then a piece of sterile absorbent cotton moistened in sterile water was carefully touched to the pulled end of the ampoule so that a small crack appeared, and the same wet cotton was passed around the tip of the ampoule. After the crack had formed, the end of the ampoule was removed with a light blow of tweezers. After opening the ampoule, 0.3-0.5 ml of heart-brain broth was sterilely poured in. After dissolution of the dry contents, the ampoule was transferred with a Pasteur pipette into tubes with 2 ml of heart-brain broth and grown at 37°C for 2 hours in a thermostat in 5% CO2 medium. To restore full viability, 1-2 passages on nutrient media appropriate for the microbes of the species were required. 2 Petri dishes with agar containing 5% horse blood were seeded with 0.1 ml of a 2-hour culture on heart-brain broth of the strain. Petri dishes were incubated at 37°C for 18 hours in an incubator containing 5% CO2. Gram stained smears were prepared from the grown colonies to assess the tinctorial, phenotypic properties and homogeneity of bacteria. Species membership was confirmed using MALDI-TOF reference bases.
Aqueous solutions of nisin in concentrations of 0.004 and 0.008% were taken as the working solutions for testing. […] Distilled water was used as a negative control. […] Urea was chosen due to its ability to alkalinize the environment in bacterial biofilms (Jadon et al., 2018). During the assay, a 10% sucrose solution was used, which is known to be readily metabolized by cariogenic bacteria to acid, thus contributing to the overall acidification of the medium.
The contents of the wells were extracted using an aspirator. All 6 wells of the first row were filled with 1 ml of deionized water and left for 5 min. The water was extracted with an aspirator; 1 ml of the test solution was added into the wells; in 1 min the component was removed, the wells were glazed for 1 min with deionized water, then it was removed. 250 µl of 10% sucrose was added to the wells and biofilms were scraped off the well walls with a disposable plastic loop. The resulting suspension was transferred by pipette into three Eppendorf tubes: contents of wells 1 and 2 into Eppendorf tube No. 1, contents of wells 3 and 4 into Eppendorf tube No. 2, contents of wells 5 and 6 into Eppendorf tube No. 3; next, the measurement of pH started immediately. Time points of the measurement are: 0, 1, 2, 3, 4, 5, 6, 7, 8, 9, 10, 15, 20, 30 min. After the test was finished, the electrode was washed and the described procedure was repeated for the next solution under study.

NC(N)=O [Urea, reference compound]
pH of mechanically disrupted S.mutans biofilms (Urea 0.5%, 10% sucrose, 0 min): 6.33±0.03
pH of mechanically disrupted S.mutans biofilms (Urea 0.5%, 10% sucrose, 1 min): 6.32±0.006
pH change (in brackets), S.mutans biofilms (Urea 0.5%, 10% sucrose, 1 min vs previous time point): -0.01
pH of mechanically disrupted S.mutans biofilms (Urea 0.5%, 10% sucrose, 2 min): 6.22±0.01
pH change (in brackets), S.mutans biofilms (Urea 0.5%, 10% sucrose, 2 min vs previous time point): -0.1
pH of mechanically disrupted S.mutans biofilms (Urea 0.5%, 10% sucrose, 3 min): 6.15±0.006
pH change (in brackets), S.mutans biofilms (Urea 0.5%, 10% sucrose, 3 min vs previous time point): -0.07
pH of mechanically disrupted S.mutans biofilms (Urea 0.5%, 10% sucrose, 4 min): 6.09±0.006
pH change (in brackets), S.mutans biofilms (Urea 0.5%, 10% sucrose, 4 min vs previous time point): -0.06
pH of mechanically disrupted S.mutans biofilms (Urea 0.5%, 10% sucrose, 5 min): 6.06±0
pH change (in brackets), S.mutans biofilms (Urea 0.5%, 10% sucrose, 5 min vs previous time point): -0.03
pH of mechanically disrupted S.mutans biofilms (Urea 0.5%, 10% sucrose, 6 min): 6.04±0
pH change (in brackets), S.mutans biofilms (Urea 0.5%, 10% sucrose, 6 min vs previous time point): -0.02
pH of mechanically disrupted S.mutans biofilms (Urea 0.5%, 10% sucrose, 7 min): 6.02±0.006
pH change (in brackets), S.mutans biofilms (Urea 0.5%, 10% sucrose, 7 min vs previous time point): -0.02
pH of mechanically disrupted S.mutans biofilms (Urea 0.5%, 10% sucrose, 8 min): 6.0±0.01
pH change (in brackets), S.mutans biofilms (Urea 0.5%, 10% sucrose, 8 min vs previous time point): -0.02
pH of mechanically disrupted S.mutans biofilms (Urea 0.5%, 10% sucrose, 9 min): 5.93±0.02
pH change (in brackets), S.mutans biofilms (Urea 0.5%, 10% sucrose, 9 min vs previous time point): -0.07
pH of mechanically disrupted S.mutans biofilms (Urea 0.5%, 10% sucrose, 10 min): 5.83±0.02
pH change (in brackets), S.mutans biofilms (Urea 0.5%, 10% sucrose, 10 min vs previous time point): -0.1
pH of mechanically disrupted S.mutans biofilms (Urea 0.5%, 10% sucrose, 15 min): 5.74±0.02
pH change (in brackets), S.mutans biofilms (Urea 0.5%, 10% sucrose, 15 min vs previous time point): -0.09
pH of mechanically disrupted S.mutans biofilms (Urea 0.5%, 10% sucrose, 20 min): 5.46±0.02
pH change (in brackets), S.mutans biofilms (Urea 0.5%, 10% sucrose, 20 min vs previous time point): -0.28
pH of mechanically disrupted S.mutans biofilms (Urea 0.5%, 10% sucrose, 30 min): 5.24±0.006
pH change (in brackets), S.mutans biofilms (Urea 0.5%, 10% sucrose, 30 min vs previous time point): -0.22
Value of pH decrease within 30 min. of measurement (%) (Urea 0.5%, 10% sucrose, compared to the initial value): -17.22%
ability to stabilize pH in monospecies cariogenic biofilms (Urea in concentration of 0.5%, compared to the negative control): no ability to stabilize pH
